One data set concerns the target T1, HsDHODH (Homo sapiens, UniProt Q02127).
T1 construct: made in house
The data set is described as follows: HsDHODH counter-assay. In kind it is biochemical. The note with it: purified recombinant HsDHODH, tested at 4.5 µM; read-out: IC50 DHODH Hs.

For data set [1], the target named is mammalian mitochondrial complexes II–III (Bos taurus, UniProt P00157+P35720+Q3T189+Q95123). The data set is described as follows: succinate-cytochrome c reductase (complexes II–III) activity assay. In kind it is biochemical. The note with it: bovine heart mitochondria, range tested 0.0007 to 22.7 µM; read-out: IC50 Mammalian Mitochondrial CII–III.
Data set [2] relates to P. falciparum 3D7 strain expressing the cytosolic yeast DHODH (3D7-yDHODH). As to the kind of experiment: Confirmation assay against transgenic parasite 3D7-yDHODH. The data set is classed as cell-based, Plasmodium falciparum. The note with it: for activity at 10 µM: 72 h, relative parasite growth at 10 µM compound, read-out: Growth at 10 µM (%) Pf3D7-yDHODH; for susceptibility of Pf3D7-yDHODH parasite (in words): relative parasite growth at 10 µM, compared with wild-type 3D7. The procedure:
Synchronized ring-stage parasites at 0.3% parasitemia and 2% hematocrit were cultured in a 384-well plate at 25 µL with test compounds at a final concentration in the range of 0.0003 to 10 µM with a fixed DMSO concentration of 0.4% (v/v). Parasite growth was monitored by the diaphorase-coupled P. falciparum lactate dehydrogenase (PfLDH) assay, as previously described. After 72 h, 70 µL of the assay solution (150 mM lithium L-lactate (Wako), 0.05 mg/mL 3-acetylpyridine adenine dinucleotide (Oriental Yeast Co., Ltd., Tokyo, Japan), 0.2 mg/mL nitro blue tetrazolium (Wako), 1 unit/mL diaphorase, and 100 mM Tris-HCl pH 8.0) were mixed with the parasite culture and incubated at room temperature for 40 min, and the generated nitro blue formazan was measured at 650 nm using a SpectraMax®® Paradigm®® Multi-Mode Microplate Reader. […] The EC50 was calculated using GraphPad Prism 8.0 software from the mean of quadruplets values.
The P. falciparum 3D7 strain expressing the cytosolic yeast DHODH (3D7-yDHODH) was prepared as follows. pHHyDHODH-GFP plasmid (Kerafast, Boston, MA, USA) was transfected to the P. falciparum 3D7 strain following the established transfection method. Briefly, 50 µg of plasmid dissolved in cytomix solution (120 mM KCl, 0.15 mM CaCl2, 10 mM K2HPO4/KH2PO4 pH 7.6, 25 mM HEPES-KOH pH 7.6, 2 mM ethylene glycol-bis(β-aminoethyl ether)-N,N,N′,N′-tetraacetic acid (EGTA, Dojindo), and 5 mM magnesium chloride (Wako)) was transfected into the red blood cells by the Gene Pulser Xcell (Bio-Rad). Percoll–sorbitol synchronized parasites were mixed with red blood cells containing plasmid and maintained under 5 nM WR99210 for 2 weeks. The growth of resistant parasites against DSM265 and atovaquone, as PfDHODH and complex III inhibitors respectively, was confirmed by PfLDH/diaphorase assay. A total of 10 µM PfDHODH inhibitors were tested against wild-type 3D7 and 3D7-yDHODH following the method described above in triplicate. The significance of difference between the inhibition of the two parasite strains was evaluated by Student’s t-test (Figure S4).

A short description of data set [3]: Cytotoxicity assay, HDF (Cell Counting Kit-8). The settings on record: human dermal fibroblast (HDF) cells, normal human dermal fibroblasts. In kind it is cell-based. A general note: Tetrazolium assays rely on reduction of a dye to a coloured formazan, in cell work by metabolically active cells.
The nature of data set [4]: Cytotoxicity assay, PANC-1 (Cell Counting Kit-8). The note with it: PANC-1 human pancreatic carcinoma cells. In kind it is cell-based.
Data set [5] in a line: Cytotoxicity assay, DLD-1 (Cell Counting Kit-8). The data set is classed as cell-based. The settings on record: DLD-1 human colorectal adenocarcinoma cells.

The values below come from publication PMC8268581, “Identification of 3,4-Dihydro-2H,6H-pyrimido[1,2-c][1,3]benzothiazin-6-imine Derivatives as Novel Selective Inhibitors of Plasmodium falciparum Dihydroorotate Dehydrogenase” (International Journal of Molecular Sciences, 2021).

Where only a bound is given, the exact number is not on record here.

T1 sequence (Q02127 whole entry): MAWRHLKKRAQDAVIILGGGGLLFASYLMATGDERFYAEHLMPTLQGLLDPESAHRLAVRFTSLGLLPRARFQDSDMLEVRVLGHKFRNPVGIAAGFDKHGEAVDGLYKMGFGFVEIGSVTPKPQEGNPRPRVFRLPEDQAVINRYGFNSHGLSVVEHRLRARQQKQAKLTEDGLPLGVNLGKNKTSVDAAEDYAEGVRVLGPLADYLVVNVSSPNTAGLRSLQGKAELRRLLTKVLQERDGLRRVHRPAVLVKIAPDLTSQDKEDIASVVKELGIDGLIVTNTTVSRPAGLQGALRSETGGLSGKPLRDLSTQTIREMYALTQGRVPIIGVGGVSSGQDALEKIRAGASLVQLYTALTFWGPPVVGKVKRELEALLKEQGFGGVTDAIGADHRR

What is called IC50 is the concentration that inhibits the measured activity by half. In general, EC50 refers to the concentration that produces a half-maximal response. As to `N=C1Sc2cc(-c3ccc(C(F)(F)F)cc3)ccc2C2=NCCCN12` [Compound 15], the 50% inhibitory concentration (IC50) on HsDHODH is greater than 4.5 µM; in data set [1] it was greater than 22.7 µM. In addition, the activity at 10 µM in data set [2] was -0.38 ± 0.17%. Moreover, the EC50 at 48 h in data set [3], in data set [4] and in data set [5] was greater than 10 µM each time.

Take `COC(=O)c1cccc(-c2ccc3c(c2)SN2CCCN=C32)c1` [Compound 40]: the IC50 on HsDHODH was greater than 4.5 µM; in data set [1], greater than 22.7 µM. Besides, the activity at 10 µM in data set [2] is -0.09 ± 0.08%. In addition, the half-maximal effective concentration (EC50) at 48 h in data set [3] was 9.16 µM; in data set [4] it was greater than 10 µM; in data set [5], greater than 10 µM.

Turning to `COC(=O)c1ccc(-c2ccc3c(c2)SN2CCCN=C32)cc1` [Compound 37], the figures for the IC50 (on HsDHODH; in data set [1]) were greater than 4.5 µM and greater than 22.7 µM, respectively. The activity at 10 µM in data set [2] is -0.18 ± 0.05%. Besides, the half-maximal effective concentration (EC50) at 48 h in data set [3] is 8.43 µM; in data set [4], greater than 10 µM; in data set [5], greater than 10 µM.

As for `N=C1Sc2cc(-c3ccc4cnccc4c3)ccc2C2=NCCCN12` [Compound 5], the figures for the IC50 (at HsDHODH; in data set [1]) were greater than 4.5 µM and greater than 22.7 µM, respectively. In addition, the activity at 10 µM in data set [2] amounted to 26 ± 8.27%. Also, the EC50 at 48 h in data set [3], in data set [4] and in data set [5] was greater than 10 µM each time.

As for `N=C1Sc2cc(-c3cccc([N+](=O)[O-])c3)ccc2C2=NCCCN12` [Compound 21], the concentration for half-maximal inhibition (IC50) on HsDHODH is greater than 4.5 µM; in data set [1], greater than 22.7 µM. For the same compound, the activity at 10 µM in data set [2] stood at 103 ± 0.67%. Further, the “susceptibility of Pf3D7-yDHODH parasite (in words)” value (“susceptibility” below) in data set [2] is reported as “reduced susceptibility”. In addition, the concentration for a half-maximal effect (EC50) at 48 h in data set [3], in data set [4] and in data set [5] was greater than 10 µM in each case.

For `CSc1ccc(-c2ccc3c(c2)SC(=N)N2CCCN=C32)cc1` [Compound 17], the IC50 on HsDHODH was greater than 4.5 µM; in data set [1], greater than 22.7 µM. Moreover, the activity at 10 µM in data set [2] is -0.5 ± 0.01%. The EC50 at 48 h in data set [3], in data set [4] and in data set [5] was greater than 10 µM throughout.

Take `O=[N+]([O-])c1ccccc1-c1ccc2c(c1)SN1CCCN=C21` [Compound 43]: the concentration for half-maximal inhibition (IC50) on HsDHODH is greater than 4.5 µM; in data set [1] it was greater than 22.7 µM. Moreover, in data set [2], the activity at 10 µM worked out at 31.1 ± 2.38%. In addition, in data set [2], the “susceptibility” value is reported as “reduced susceptibility”. For the same compound, the EC50 at 48 h in data set [3] was 9.44 µM; in data set [4] it was greater than 10 µM; in data set [5], greater than 10 µM.

Consider `N=C1Sc2cc(-c3cc4ccccc4o3)ccc2C2=NCCCN12` [Compound 7], for which the figures for the IC50 (on HsDHODH; in data set [1]) were greater than 4.5 µM and greater than 22.7 µM, respectively. The activity at 10 µM in data set [2] stood at 36.2 ± 1.01%. Moreover, the half-maximal effective concentration (EC50) at 48 h in data set [3], in data set [4] and in data set [5] was greater than 10 µM throughout.

For `c1cc2c(cc1-c1ccc3c(c1)SN1CCCN=C31)OCO2` [Compound 32], the IC50 is greater than 4.5 µM on HsDHODH and greater than 22.7 µM in data set [1]. In data set [2], the activity at 10 µM is 0.11 ± 0.03%. Besides, the concentration giving a half-maximal response (EC50) at 48 h in data set [3], in data set [4] and in data set [5] was greater than 10 µM in each case.

For the compound `c1ccc(-c2ccc3c(c2)C2=NCCCN2S3)cc1` [Compound 36], the values for the IC50 (on HsDHODH; in data set [1]) were greater than 4.5 µM and greater than 22.7 µM, respectively. For the same compound, the activity at 10 µM in data set [2] was 32.5 ± 10.1%. The half-maximal effective concentration (EC50) at 48 h in data set [3] was 8.38 µM; in data set [4], greater than 10 µM; in data set [5], greater than 10 µM.

Regarding `c1ccc(-c2ccc3c(c2)SN2CCCN=C32)cc1` [Compound 30], the results for the IC50 (at HsDHODH; in data set [1]) were greater than 4.5 µM and greater than 22.7 µM, respectively. In data set [2], the activity at 10 µM stood at 63.6 ± 5.87%. The “susceptibility” value in data set [2] is reported as “reduced susceptibility”. Also, the concentration for a half-maximal effect (EC50) at 48 h in data set [3], in data set [4] and in data set [5] was greater than 10 µM in each case.

With `COC(=O)c1ccc(-c2ccc3c(c2)SC(=N)N2CCCN=C32)cc1` [Compound 13], the IC50 is greater than 4.5 µM on HsDHODH and greater than 22.7 µM in data set [1]. Also, the activity at 10 µM in data set [2] came to 70.5 ± 0.73%. Besides, the “susceptibility” value in data set [2] is on record as “reduced susceptibility”. Moreover, the EC50 at 48 h in data set [3], in data set [4] and in data set [5] was greater than 10 µM in each case.

With `O=[N+]([O-])c1ccc(-c2ccc3c(c2)SN2CCCN=C32)cc1` [Compound 39], the concentration for half-maximal inhibition (IC50) on HsDHODH is greater than 4.5 µM; in data set [1] it was greater than 22.7 µM. Besides, the activity at 10 µM in data set [2] came to 1.48 ± 0.14%. Besides, the EC50 at 48 h in data set [3], in data set [4] and in data set [5] was greater than 10 µM throughout.
